Like-named read-outs stand apart in the source and are kept apart here.
What was measured:
HTT mRNA = assay: RT-qPCR splicing assay, HTT mRNA canonical (CJ) and alternative (AJ) junction; format: cell-based, human; settings: Homo sapiens; for AC50: HTT alternative junction mRNA, read-out: HTT AJ (increase in AJ mRNA, AC50)
Procedure, shortened: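 Canonical and alternative-exon junction isoforms were quantified by RT-qPCR in cell lysates, with ΔCt against a housekeeper (GAPDH/GUSB/PPIA), then ΔΔCt vs DMSO, converted to 2^(−ΔΔCt) and percent response. K562 or A673 cells were exposed for 24 h to 11 concentrations (3-fold, top final 10 uM).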

Target C = assay: RT-qPCR canonical junction panel assay, Target C mRNA; format: cell-based; settings: Table 4, read-out: Target C IC50 (decrease in CJ mRNA levels)
Procedure, shortened: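 IC50 is the concentration giving 50% CJ decrease, from a 4-parameter logistic fit of percent response; response derived from ΔΔCt against housekeeper and DMSO over a fixed ΔCt window, with canonical exon-junction qPCR in compound-treated K562 or A673 cells.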

[1] = HTT canonical junction mRNA, RT-qPCR, read-out: HTT CJ (decrease in CJ mRNA levels, IC50)
[2] = canonical junction qPCR panel, Table 4, read-out: HTT IC50 (decrease in CJ mRNA levels)

IC50 (HTT mRNA; [1]) [nM] | IC50 (HTT mRNA; [2]) [nM] | IC50 (Target C) [nM] | SMILES | AC50 (HTT mRNA; RT-qPCR) [nM]
< 100 | < 100 | < 100 | Cc1nc2c(F)c(O)c(-c3ccc4nc(N5CC[C@@H](NC6(C)CC6)C5)ccc4n3)cc2o1 (stereo in doubt) [Compound 326, 4-fluoro-2-methyl-6-{6-[(3 S)-3-[(1-methylcyclopropyl)amino]pyrrolidin-1-yl]-1,5-naphthyridin-2-yl}-1,3-benzoxazol-5-ol] | < 100
< 100 | < 100 | < 100 | Cc1nc2c(F)c(O)c(-c3ccc4nc(N5CCC(NC6(C)CC6)C5)ccc4n3)cc2o1 (stereo in doubt) [Compound 327, 4-fluoro-2-methyl-6-{6-[(3R)-3-[(1-methylcyclopropyl)amino]pyrrolidin-1-yl]-1,5-naphthyridin-2-yl}-1,3-benzoxazol-5-ol] | < 100
< 100 | < 100 | < 100 | Cc1nc2c(C)c(O)c(-c3ccc4nc(N5CC[C@H](NC(C)(C)C)C5)ccc4n3)cc2o1 [Compound 214] | < 100
< 100 | < 100 | < 100 | Cc1nc2c(C)c(O)c(-c3ccc4nc(N5CC[C@H](NC6CC6)C5)ccc4n3)cc2o1 [Compound 216] | < 100
< 100 | < 100 | < 100 | Cc1nc2c(C)c(O)c(-c3ccc4nc(N5CC[C@@H](NC6CC6)C5)ccc4n3)cc2o1 [Compound 217] | < 100
< 100 | < 100 | < 100 | Cn1cc2cc(-c3ccc4nc(N5CCC(NC6(C)CC6)C5)ccc4n3)c(O)cc2n1 (centres unmarked) [Compound 219] | < 100
< 100 | < 100 | 100 to 1000 | Cc1nc2cc(O)c(-c3ccc4nc(N5CC[C@@H](NC6CCC6)C5)ccc4n3)cc2o1 [Compound 229] | < 100
< 100 | < 100 | 100 to 1000 | Cc1nc2cc(O)c(-c3ccc4nc(N5CC[C@H](NC6CCC6)C5)ccc4n3)cc2o1 [Compound 230] | < 100
< 100 | < 100 | < 100 | Cc1nc2cc(O)c(-c3ccc4nc(N5CCC(NC(C)C)C5)ccc4n3)cc2o1 (centres unmarked) [Compound 231] | < 100
< 100 | < 100 | 100 to 1000 | Cc1nc2c(C)c(O)c(-c3ccc4nc(N5CCC(NC6CCC6)C5)ccc4n3)cc2o1 (centres unmarked) [Compound 235] | < 100
< 100 | < 100 | 100 to 1000 | Cc1nc2c(C)c(O)c(-c3ccc4nc(N5CC[C@@H](NC6CCC6)C5)ccc4n3)cc2o1 [Compound 236] | < 100
< 100 | < 100 | < 100 | Cc1nc2c(C)c(O)c(-c3ccc4nc(N5CC[C@H](NC6CCC6)C5)ccc4n3)cc2o1 [Compound 237] | < 100
1000 to 10000 | 1000 to 10000 | 1000 to 10000 | Cc1cc(-c2ccc3nc(N4CCC(NC(C)(C)C)C4)ccc3n2)nc2cn(C)nc12 (centres unmarked) [Compound 248] | 100 to 1000
< 100 | < 100 | < 100 | Cc1c(O)c(-c2ccc3nc(N4CC[C@@H](NC(C)(C)C)C4)ccc3n2)cc2cn(C)nc12 [Compound 249] | < 100
< 100 | < 100 | < 100 | Cc1c(O)c(-c2ccc3nc(N4CC[C@H](NC(C)(C)C)C4)ccc3n2)cc2cn(C)nc12 [Compound 250] | < 100
> 10000 | > 10000 | > 10000 | COc1c(-c2ccc3nc(N4CCC(NC(C)(C)C)C4)ccc3n2)cc2c[nH]nc2c1C (centres unmarked) [Compound 251] | > 10000

IC50 (HTT mRNA; [1]) [nM] | IC50 (HTT mRNA; [2]) [nM] | IC50 (Target C) [nM] | SMILES | AC50 (HTT mRNA; RT-qPCR) [nM]
< 100 | < 100 | 100 to 1000 | Cc1cn2nc(-c3ccc4nc(N5CCC(NC6CC6)C5)ccc4n3)c(O)c2c(C)n1 (centres unmarked) [Compound 252] | 100 to 1000
< 100 | < 100 | 100 to 1000 | Cc1c(O)c(-c2ccc3nc(N4CCC(NCC5CC5)C4)ccc3n2)cc2cn(C)nc12 (centres unmarked) [Compound 284, 5-(6-{3-[(cyclopropylmethyl)amino]pyrrolidin-1-yl}-1,5-naphthyridin-2-yl)-2,7-dimethylindazol-6-ol] | < 100
< 100 | < 100 | 100 to 1000 | Cc1c(O)c(-c2ccc3nc(N4CCC(NC5CCC5)C4)ccc3n2)cc2cn(C)nc12 (centres unmarked) [Compound 288, 5-{6-[3-(cyclobutylamino)pyrrolidin-1-yl]-1,5-naphthyridin-2-yl}-2,7-dimethylindazol-6-ol] | < 100
< 100 | < 100 | < 100 | Cc1nc2c(F)c(O)c(-c3ccc4nc(N5CCC(NC6CCC6)C5)ccc4n3)cc2o1 (centres unmarked) [Compound 293, 6-{6-[3-(cyclobutylamino)pyrrolidin-1-yl]-1,5-naphthyridin-2-yl}-4-fluoro-2-methyl-1,3-benzoxazol-5-ol] | < 100
1000 to 10000 | 1000 to 10000 | > 10000 | Cn1cc2cc(-c3ccc4nc(N5CCC(NC67CC(C6)C7)C5)ccc4n3)c(O)cc2n1 (centres unmarked) [Compound 297, 5-[6-(3-{bicyclo[1.1.1]pentan-1-ylamino}pyrrolidin-1-yl)-1,5-naphthyridin-2-yl]-2-methylindazol-6-ol] | 1000 to 10000
< 100 | < 100 | 100 to 1000 | Cn1cc2nc(-c3ccc4nc(N5CCC(NC(C)(C)C)C5)ccc4n3)c(O)cc2n1 (centres unmarked) [Compound 298, 5-{6-[3-(tert-butylamino)pyrrolidin-1-yl]-1,5-naphthyridin-2-yl}-2-methylpyrazolo[4,3-b]pyridin-6-ol] | < 100
< 100 | < 100 | 1000 to 10000 | Cn1cc2cc(-c3ccc4nc(N5CC[C@H](N[C@H]6C[C@@H](F)C6)C5)ccc4n3)c(O)cc2n1 [Compound 299, 2-methyl-5-{6-[(3S)-3-{[(1s,3s)-3-fluorocyclobutyl]amino}pyrrolidin-1-yl]-1,5-naphthyridin-2-yl}indazol-6-ol] | 100 to 1000
100 to 1000 | 100 to 1000 | 1000 to 10000 | Cc1c(O)c(-c2ccc3nc(N4CCC(NC5COC5)C4)ccc3n2)cc2cn(C)nc12 (centres unmarked) [Compound 302, 2,7-dimethyl-5-{6-[3-(oxetan-3-ylamino)pyrrolidin-1-yl]-1,5-naphthyridin-2-yl}Indazol-6-ol] | 100 to 1000
< 100 | < 100 | < 100 | Cc1nc2c(C)c(O)c(-c3ccc4nc(N5CCC(NC6(C)CC6)C5)ccc4n3)cc2o1 (centres unmarked) [Compound 309, 2,4-dimethyl-6-(6-{3-[(1-methylcyclopropyl)amino]pyrrolidin-1-yl}-1,5-naphthyridin-2-yl)-1,3-benzoxazol-5-ol] | < 100
< 100 | < 100 | < 100 | Cc1nc2c(C)c(O)c(-c3ccc4nc(N5CCC(NC(C)C)C5)ccc4n3)cc2o1 (centres unmarked) [Compound 312, 6-{6-[3-(isopropylamino)pyrrolidin-1-yl]-1,5-naphthyridin-2-yl}-2,4-dimethyl-1,3-benzoxazol-5-ol] | < 100
< 100 | < 100 | < 100 | Cn1cc2cc(-c3ccc4nc(N5CCC(NC6CCC6)C5)ccc4n3)c(O)c(F)c2n1 (centres unmarked) [Compound 315, 5-{6-[3-(cyclobutylamino)pyrrolidin-1-yl]-1,5-naphthyridin-2-yl}-7-fluoro-2-methylindazol-6-ol] | < 100
< 100 | < 100 | < 100 | Cc1c(O)c(-c2ccc3nc(N4CCC(NC(C)C)C4)ccc3n2)cc2cn(C)nc12 (centres unmarked) [Compound 318, 5-{6-[3-(isopropylamino)pyrrolidin-1-yl]-1,5-naphthyridin-2-yl}-2,7-dimethylindazol-6-ol] | < 100
< 100 | < 100 | < 100 | Cc1c(O)c(-c2ccc3nc(N4CC[C@H](NC(C)C)C4)ccc3n2)cc2cn(C)nc12 [Compound 320] | < 100
< 100 | < 100 | < 100 | Cc1nc2c(F)c(O)c(-c3ccc4nc(N5CCC(NC6(C)CC6)C5)ccc4n3)cc2o1 (centres unmarked) [Compound 325, 4-fluoro-2-methyl-6-(6-{3-[(1-methylcyclopropyl)amino]pyrrolidin-1-yl}-1,5-naphthyridin-2-yl)-1,3-benzoxazol-5-ol] | < 100
< 100 | < 100 | < 100 | Cc1nc2c(F)c(O)c(-c3ccc4nc(N5CCC(NC(C)C)C5)ccc4n3)cc2o1 (centres unmarked) [Compound 328, 4-fluoro-6-{6-[3-(isopropylamino)pyrrolidin-1-yl]-1,5-naphthyridin-2-yl}-2-methyl-1,3-benzoxazol-5-ol] | < 100
100 to 1000 | 100 to 1000 | 100 to 1000 | CN[C@@H]1CCN(c2ccc3nc(-c4cc(F)c5nc(C)cn5c4)ncc3n2)C1 [Compound 331, (3R)-1-(2-{8-fluoro-2-methylimidazo[1,2-a]pyridin-6-yl}pyrido[3,2-d]pyrimidin-6-yl)-N-methylpyrrolidin-3-amine] | 100 to 1000

Reference: patent US20250092065A1, “2-(INDAZOL-5-YL)-6-(PIPERIDIN-4-YL)-1,7-NAPHTHYRIDINE DERIVATIVES AND RELATED COMPOUNDS AS MODULATORS FOR SPLICING NUCLEIC ACIDS AND FOR THE TREATMENT OF PROLIFERATIVE DISEASES” (REMIX THERAPEUTICS INC., priority 2022, published 2025)
